Our source for the Kd values is article doi:10.1101/2021.06.06.447270v1 (biorxiv, 2021).

The assay addresses hCD36ecto (CD36ecto; human CD36 ectodomain) (Homo sapiens, UniProt P16671). Nature of the assay: isothermal titration calorimetry. The class given is binding.

Sequence of hCD36ecto (CD36ecto; human CD36 ectodomain) (P16671 30-439 limits assumed): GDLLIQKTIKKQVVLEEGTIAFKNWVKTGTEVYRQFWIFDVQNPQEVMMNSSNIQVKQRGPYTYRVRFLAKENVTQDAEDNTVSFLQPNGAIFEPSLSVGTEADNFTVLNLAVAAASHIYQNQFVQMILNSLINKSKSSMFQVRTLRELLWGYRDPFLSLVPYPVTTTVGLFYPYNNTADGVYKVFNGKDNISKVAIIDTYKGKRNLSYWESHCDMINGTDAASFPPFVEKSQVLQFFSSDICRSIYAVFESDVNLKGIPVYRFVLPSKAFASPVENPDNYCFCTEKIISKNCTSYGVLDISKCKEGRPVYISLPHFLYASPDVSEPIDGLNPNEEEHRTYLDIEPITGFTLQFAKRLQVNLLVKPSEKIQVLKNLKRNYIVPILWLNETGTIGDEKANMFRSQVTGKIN

Usually Kd stands for the free concentration of one partner at which half of the binding sites on the other are occupied at equilibrium, for simple one-to-one binding. Low values mean tighter binding, high ones weaker binding. Molecule `C=CC1=C(C)C2=Cc3c(C=C)c(C)c4[n]3[Fe]([Cl])[n]3c(c(C)c(CCC(=O)O)c3=CC3=NC(=C4)C(C)=C3CCC(=O)O)=CC1=N2` [hemin] gave a Kd of 1260 ± 240 nM.
